For the first assay, the system named is Hydractinia echinata. In words: Hydractinia echinata test system (HeTS): reduction of Cs+-induced metamorphosis of larvae. The class given is in vivo. The note with it: Hydractinia echinata; MRC50 in mol/L = concentration for 50% decrease of metamorphosis vs control; larvae exposed 3 h with Cs+, read after 24 h; read-out: M: experimental Mlog(1/MRC50) (converted). Here is the method: The average (C) concentrations of these values were calculated too. The MRC50 value calculations (Chicu et al.) result from the graphical representation of the metamorphosis variation, M (%), (Y axis) function of the xenobiotic’s concentration (mol/L) (X axis), where the metamorphosis decreases with the rise of the xenobiotic’s concentration. Thus, the MRC50 value represents the xenobiotic’s concentration (mol/L) necessary for a 50% decrease of metamorphosis, with respect to control.
For each concentration of substance experiments were performed in triplicate and were repeated at least twice.
Colonies of H. echinata (Biologische Anstalt, Helgoland, Germany) were used to obtain eggs and larvae. The culture medium was artificial seawater (980 mosmol, pH 8.2, 18 °C). In laboratory an artificial metamorphosis can be synchronically started by the introduction of Cs^+ ions or by using seawater without Mg^2+ ions; it then lasts only 24 h. Under the action of external stimulus of Cs^+ ions or Cs^+ ions together with the tested compounds, one part of larvae further lives as such and another one is metamorphosized to the polyp form. The evaluation of the influence of the tested substance is very clear this way, the proposed method being based on this aspect.
H. echinata larvae were exposed to seawater containing Cs^+ and simultaneously one of the test substances for 3 h. The percentage of animals that underwent metamorphosis (development into polyps) was determined after 24 h. […] We chose a concentration of inducers which caused about […] to three quarters of the larvae to metamorphose in order to have conditions which are highly sensitive against an inhibitory influence. […] This concentration was termed MRC50 (for Metamorphosis Reduction Concentration) and is similar to the effective EC50 concentration that gives half maximal effective response.
For `O=S(=O)(O)c1cc(/N=N/c2ccc(O)cc2O)ccc1/C=C/c1ccc(/N=N/c2ccc(O)cc2O)cc1S(=O)(=O)O` [Compound 97, 5-[(E)-2-(2,4-Dihydroxyphenyl)-diazen-1-yl]-2-[(E)-2-{4-[(E)-2-(2,4-dihydroxyphenyl)-diazen-1-yl]-2-sulfophenyl}ethenyl]-benzene-1-sulfonic acid], the EC50 was 186 µM.

In the case of `O=C(Nc1ccc(N=Nc2c(S(=O)(=O)O)cc3cc(NC(=O)c4ccccc4)ccc3c2O)cc1)c1ccc(N=Nc2ccc(O)c(C(=O)Nc3ccccc3)c2)cc1` [Compound 118, 7-Benzamido-4-hydroxy-3-{2-[4-(4-{2-[4-hydroxy-3-(phenyl-carbamoyl)phenyl]diazen-1-yl}benzamido)-phenyl]diazen-1-yl}naphthalene-2-sulfonic acid], the EC50 is 224 µM.

As to `O=C(O)c1ccc(N=Nc2c(O)c(C(=O)O)cc3ccccc23)cc1` [Compound 25, 4-[2-(4-Carboxyphenyl)diazen-1-yl]-3-hydroxynaphthalene-2-carboxylic acid], the EC50 is 355 µM.

On to `Nc1ccc(/N=N/c2ccccc2C(=O)O)cc1C(=O)O` [Compound 5, 2-Amino-5-[(E)-2-(2-carboxyphenyl)diazen-1-yl]benzoic acid], for which the EC50 is 26.3 µM.

In the case of `Nc1ccc2cc(S(=O)(=O)O)c(N=Nc3ccc(NC(=O)c4ccc(N=Nc5ccc(O)c(C(=O)Nc6ccccc6)c5)cc4)cc3)c(O)c2c1` [Compound 121, 6-Amino-4-hydroxy-3-{2-[4-(4-{2-[4-hydroxy-3-(phenyl-carbamoyl)phenyl]diazen-1-yl}benzamido)-phenyl]diazen-1-yl}naphthalene-2-sulfonic acid], the EC50 was 31.6 µM.

Consider `O=C(O)c1cc2ccccc2c(N=Nc2ccc(C=Cc3ccc(N=Nc4c(O)c(C(=O)O)cc5ccccc45)cc3S(=O)(=O)O)c(S(=O)(=O)O)c2)c1O` [Compound 101, 4-{2-[4-(2-{4-[2-(3-Carboxy-2-hydroxy-naphthalen-1-yl)diazen-1-yl]-2-sulfophenyl}-ethenyl)-3-sulfo-phenyl]diazen-1-yl}-3-hydroxynaphthalene-2-carboxylic acid], for which the EC50 was 135 µM.

`Nc1ccc2cc(S(=O)(=O)O)c(N=Nc3ccc(NC(=O)c4ccc(N=Nc5c(S(=O)(=O)O)cc6cc(S(=O)(=O)O)cc(N)c6c5O)cc4)cc3)c(O)c2c1` [Compound 111, 5-Amino-3-{2-[4-({4-[2-(7-amino-1-hydroxy-3-sulfonaphthalen-2-yl)diazen-1-yl]phenyl}-carbamoyl)phenyl]diazen-1-yl}-4-hydroxy-naphthalene-2,7-disulfonic acid]: the EC50 is 263 µM.

As for `Nc1c(N=Nc2ccc([N+](=O)[O-])cc2C(=O)O)c(S(=O)(=O)O)cc2cc(S(=O)(=O)O)c(N=Nc3ccc(NC(=O)c4ccc(N=Nc5ccc(O)c(C(=O)O)c5)cc4)cc3)c(O)c12` [Compound 114, 5-[2-(4-{[4-(2-{8-Amino-7-[2-(2-carboxy-4-nitrophenyl)diazen-1-yl]-1-hydroxy-3,6-disulfonaphthalen-2-yl}diazen-1-yl)phenyl]-carbamoyl}phenyl)-diazen-1-yl]-2-hydroxybenzoic acid], the EC50 was 129 µM.

With `CCN(CC)c1ccc(N=Nc2ccc(C(=O)O)cc2)cc1` [Compound 6, 4-{2-[4-(Diethylamino)phenyl]diazen-1-yl}benzoic acid], the EC50 is 17 µM.

Regarding `O=C(Nc1ccc(/N=N/c2ccc(O)c(C(=O)O)c2)cc1)c1ccc(/N=N/c2cc(/N=N/c3cc(S(=O)(=O)O)ccc3O)c(O)cc2O)cc1` [Compound 105, 5-[(E)-2-(4-{4-[(E)-2-{2,4-dihydroxy-5-[(E)-2-(2-hydroxy-5-sulfo-phenyl)diazen-1-yl]-phenyl}diazen-1-yl]-benzamido}phenyl)-diazen-1-yl]-2-hydroxybenzoic acid], the EC50 is 229 µM.

For the compound `Cc1ccc(N=Nc2ccc([N+](=O)[O-])cc2)c(O)c1` [Compound 20, 5-Methyl-2-[2-(4-nitrophenyl)-diazen-1-yl]phenol], the EC50 is 77.6 µM.

As for `Cc1cc(-c2ccc(/N=N/c3ccc4c(S(=O)(=O)O)cc(S(=O)(=O)O)c(N)c4c3O)c(C)c2)ccc1/N=N/c1ccc2c(S(=O)(=O)O)cc(S(=O)(=O)O)c(N)c2c1O` [Compound 89, Direct Blue 53 (Evans Blue)], the EC50 is 7.41 µM.

With `Nc1c(N=Nc2ccc([N+](=O)[O-])cc2)c(S(=O)(=O)O)cc2cc(S(=O)(=O)O)c(N=Nc3ccc(NC(=O)c4ccc(N=Nc5ccc(O)c(C(=O)O)c5)cc4)cc3)c(O)c12` [Compound 113, 5-[2-(4-{[4-(2-{8-Amino-1-hydroxy-7-[2-(4-nitrophenyl)diazen-1-yl]-3,6-disulfonaphthalen-2-yl}diazen-1-yl)-phenyl]carbamoyl}-phenyl)diazen-1-yl]-2-hydroxybenzoic acid], the EC50 is 112 µM.

Still in this assay, the particulars now being: Hydractinia echinata; parent dye, Table 2; read-out: F(1+2+...)e experimental toxicity log(1/MRC50) (converted).
`O=S(=O)(O)c1cc(/N=N/c2ccc(O)cc2O)ccc1/C=C/c1ccc(/N=N/c2ccc(O)cc2O)cc1S(=O)(=O)O` [Compound 97, 5-[(E)-2-(2,4-Dihydroxyphenyl)-diazen-1-yl]-2-[(E)-2-{4-[(E)-2-(2,4-dihydroxyphenyl)-diazen-1-yl]-2-sulfophenyl}ethenyl]-benzene-1-sulfonic acid]: the EC50 was 186 µM.

Turning to `Cc1ccc(N=Nc2ccc([N+](=O)[O-])cc2)c(O)c1` [Compound 20, 5-Methyl-2-[2-(4-nitrophenyl)-diazen-1-yl]phenol], the EC50 is 77.6 µM.

The assay is the same for the next values; noted with them: MRC50 in mol/L = concentration for 50% decrease of metamorphosis vs control; larvae exposed 3 h with Cs+, read after 24 h.
As to Direct Black 32 [Compound 77], the “M: experimental Mlog(1/MRC50)” value was 3.89.

`O=S(=O)([O-])c1cc(N=Nc2c(O)ccc3ccccc23)ccc1-c1ccc(N=Nc2c(O)ccc3ccccc23)cc1S(=O)(=O)[O-].[Na+].[Na+]` [Compound 87, Acid Red 97]: the “M: experimental Mlog(1/MRC50)” value was determined as 4.11.

For the compound `O=S(=O)([O-])c1cc(N=Nc2ccc(O)cc2)ccc1/C=C/c1ccc(N=Nc2ccc(O)cc2)cc1S(=O)(=O)[O-].[Na+].[Na+]` [Compound 96, Brilliant Yellow], the “M: experimental Mlog(1/MRC50)” value came to 3.84.

With `O=S(=O)([O-])c1ccc(N=Nc2c(O)ccc3ccccc23)cc1.[Na+]` [Compound 28, Acid Orange 7], the “M: experimental Mlog(1/MRC50)” value was 3.17.

`Cl.Cl.Nc1ccc(N=Nc2cccc(N=Nc3ccc(N)cc3N)c2)c(N)c1` [Compound 60, Bismark Brown Y (Vesuvin)]: the “M: experimental Mlog(1/MRC50)” value is 3.87.

`Cc1ccccc1/N=N/c1ccc(/N=N/c2c(O)ccc3ccccc23)c(C)c1` [Compound 63, Sudan IV (Scarlet Red)]: the “M: experimental Mlog(1/MRC50)” value was 3.05.

Consider `Nc1ccc(N=Nc2ccc(-c3ccc(N=Nc4c(S(=O)(=O)[O-])cc5cc(S(=O)(=O)[O-])c(N=Nc6ccccc6)c(O)c5c4N)cc3)cc2)c(N)c1.[Na+].[Na+]` [Compound 83, Direct Black 38], for which the “M: experimental Mlog(1/MRC50)” value was found to be 4.26.

The assay is the same for the next values; noted with them: in vivo.
As to `COc1ccc(N)cc1` [p-Methoxy-aniline], the “F(1), F(2),... individual log(1/MRC50) toxicity value” is 3.32.

In the case of `Nc1ccc([N+](=O)[O-])cc1` [p-NA, p-nitroaniline], the “F(1), F(2),... individual log(1/MRC50) toxicity value” is recorded as 2.85.

Still in this assay, the particulars now being: parent dye, Table 2.
For the compound `O=S(=O)([O-])c1cc(N=Nc2ccc(O)cc2)ccc1/C=C/c1ccc(N=Nc2ccc(O)cc2)cc1S(=O)(=O)[O-].[Na+].[Na+]` [Compound 96, Brilliant Yellow], the “F(1+2+...)e experimental toxicity log(1/MRC50)” value turned out to be 3.84.

Still in this assay, the particulars now being: product of enzymatic reduction/hydrolysis of the dye.
Take `Nc1ccc(S(=O)(=O)O)cc1` [APABS, p-aminobenzenesulfonic acid]: the “F(1), F(2),... individual log(1/MRC50) toxicity value” was 2.81.

Consider 2-Aminocresol, for which the “F(1), F(2),... individual log(1/MRC50) toxicity value” is reported as 3.21.

The record behind these values is publication PMC6270994, “The Hydractinia echinata Test-System. III: Structure-Toxicity Relationship Study of Some Azo-, Azo-Anilide, and Diazonium Salt Derivatives” (Molecules, 2014).
